In assay [1] the test system is Entercoccus faecium 180-1. Nature of the assay: broth micro-dilution MIC. The class given is cell-based. On the procedure:
(§1) The MIC's were determined using a standard broth micro-dilution assay.
(Broth dilution looks for growth in wells or tubes with falling amounts of substance.)

Assay [2] deals with Streptococcus pyogenes C203. Briefly: broth micro-dilution MIC. It counts as cell-based. On the procedure:
as §1

The subject of assay [3] is Entercoccus faecium 180. Nature of the assay: broth micro-dilution MIC. It counts as cell-based. The note with it: Entercoccus faecium 180. On the procedure:
(§2) The formula I compounds have in vitro and in vivo activity against Gram-positive pathogenic bacteria. The MIC's were determined using a standard broth micro-dilution assay.

Assay [4] relates to Enterococcus gallinarum 245. Briefly: broth micro-dilution MIC. The class given is cell-based. The note with it: Enterococcus gallinarum 245. On the procedure: as §2
Assay [5] relates to Streptococcus pneumoniae P1. Nature of the assay: broth micro-dilution MIC. The class given is cell-based. On the procedure: as §2
Assay [6] deals with vancomycin-susceptible enterococci. Nature of the assay: broth micro-dilution, mean geometric MIC. Conditions: enterococci, 24-hour incubation. The class given is cell-based, Enterococcus faecium and Enterococcus faecalis.
For assay [7], the system named is Staphylococcus aureus 446. Nature of the assay: broth micro-dilution MIC. The class given is cell-based. On the procedure:
as §1

Assay [8] has as its system Entercoccus faecium 276. Briefly: broth micro-dilution MIC. It counts as cell-based. On the procedure:
as §1

Assay [9] concerns vancomycin-resistant enterococci. Nature of the assay: broth micro-dilution, mean geometric MIC. The class given is cell-based, Enterococcus faecium and Enterococcus faecalis. The note with it: enterococci, 24-hour incubation.
Assay [10] relates to Entercoccus faecium 2041. Nature of the assay: broth micro-dilution MIC. Conditions: Entercoccus faecium 2041. The class given is cell-based. On the procedure: as §2
In assay [11] the test system is Staphylococcus haemolyticus 105. Briefly: broth micro-dilution MIC. The class given is cell-based. On the procedure: as §2
For assay [12], the system named is Staphylococcus epidermidis 270. Briefly: broth micro-dilution MIC. The class given is cell-based. On the procedure:
as §2

Assay [13] relates to Staphylococcus haemolyticus 415. Briefly: broth micro-dilution MIC. It counts as cell-based. On the procedure: as §2
For assay [14], the system named is Staphylococcus aureus S13E. It counts as cell-based. On the procedure: as §1
Assay [15] deals with Staphylococcus aureus SA1199B. The class given is cell-based. On the procedure: as §1
The test system of assay [16] is Staphylococcus aureus 447. Briefly: broth micro-dilution MIC. It counts as cell-based. On the procedure: as §1
The subject of assay [17] is Staphylococcus aureus X400. Briefly: broth micro-dilution MIC. The class given is cell-based. On the procedure:
as §1

Assay [18] concerns Staphylococcus aureus X778. Nature of the assay: broth micro-dilution MIC. The class given is cell-based. On the procedure: as §1

These results are taken from patent publication US5840684A, “Glycopeptide antibiotic derivatives” (Eli Lilly and Company, priority 1995, dated 1998).

Converted amounts (≈) assume the structure as drawn.

For orientation: MIC means the lowest concentration that inhibits growth of the organism. Read a low MIC as inhibition by little substance. `CCCCCCCCc1ccc(-c2ccc(CNC3(C)CC(OC4C(Oc5c6cc7cc5Oc5ccc(cc5Cl)C(OC5CC(C)(N)C(O)C(C)O5)C5NC(=O)C(NC(=O)C7NC(=O)C(CC(N)=O)NC(=O)C(NC(=O)C(CC(C)C)NC)C(O)c7ccc(c(Cl)c7)O6)c6ccc(O)c(c6)-c6c(O)cc(O)cc6C(C(=O)O)NC5=O)OC(CO)C(O)C4O)OC(C)C3O)cc2)cc1` (stereo not shown) [Compound 21]: the MIC stood at 8 mg/L (≈ 4.28 µM) in [1]; 2 mg/L (≈ 1.07 µM) in assay [2]; 8 mg/L (≈ 4.28 µM) in [3]; 8 mg/L (≈ 4.28 µM) in assay [4]; 0.5 mg/L (≈ 0.267 µM) in [5]. The “mean geometric MIC, Vancomycin Sensitive Strains” value in assay [6] was 4.3 mg/L.

On to `CCCCCCCCOc1ccc(-c2ccc(CNC3(C)CC(OC4C(Oc5c6cc7cc5Oc5ccc(cc5Cl)C(OC5CC(C)(N)C(O)C(C)O5)C5NC(=O)C(NC(=O)C7NC(=O)C(CC(N)=O)NC(=O)C(NC(=O)C(CC(C)C)NC)C(O)c7ccc(c(Cl)c7)O6)c6ccc(O)c(c6)-c6c(O)cc(O)cc6C(C(=O)O)NC5=O)OC(CO)C(O)C4O)OC(C)C3O)cc2)cc1` (stereo not shown) [Compound 23], for which the MIC in assay [7] was 38 mg/L (≈ 20.1 µM); in assay [8], 32 mg/L (≈ 17 µM); in assay [1], 32 mg/L (≈ 17 µM); in [2], 1 mg/L (≈ 0.53 µM); in assay [10] it was 32 mg/L (≈ 17 µM); in assay [4] it was 8 mg/L (≈ 4.24 µM). In addition, the MIC in assay [5] turned out to be 0.5 mg/L (≈ 0.265 µM). For the same compound, the “mean geometric MIC, Vancomycin Resistant Strains” value in assay [9] turned out to be 5.7 mg/L. Further, the “mean geometric MIC, Vancomycin Sensitive Strains” value in assay [6] is 2.0 mg/L.

Turning to `CNC(CC(C)C)C(=O)NC1C(=O)NC(CC(N)=O)C(=O)NC2C(=O)NC3C(=O)NC(C(=O)NC(C(=O)O)c4cc(O)cc(O)c4-c4cc3ccc4O)C(OC3CC(C)(N)C(O)C(C)O3)c3ccc(c(Cl)c3)Oc3cc2cc(c3OC2OC(CO)C(O)C(O)C2OC2CC(C)(NCCc3ccc(Cc4ccccc4)cc3)C(O)C(C)O2)Oc2ccc(cc2Cl)C1O` (stereo not shown) [Compound 35], the MIC was 0.5 mg/L (≈ 0.28 µM) in assay [7]; ≤ 0.06 mg/L in assay [8]; ≤ 0.06 mg/L in [1]; 2 mg/L (≈ 1.12 µM) in [11]; ≤ 0.06 mg/L in assay [10]; 1 mg/L (≈ 0.56 µM) in [3]. Moreover, the MIC in assay [4] is ≤ 0.06 mg/L; in assay [12], 1 mg/L (≈ 0.56 µM); in [13], 4 mg/L (≈ 2.24 µM); in assay [14], ≤ 0.06 mg/L. Besides, the “mean geometric MIC, Vancomycin Resistant Strains” value in [9] turned out to be 5.6 mg/L.

`CNC(CC(C)C)C(=O)NC1C(=O)NC(CC(N)=O)C(=O)NC2C(=O)NC3C(=O)NC(C(=O)NC(C(=O)O)c4cc(O)cc(O)c4-c4cc3ccc4O)C(OC3CC(C)(N)C(O)C(C)O3)c3ccc(c(Cl)c3)Oc3cc2cc(c3OC2OC(CO)C(O)C(O)C2OC2CC(C)(NCc3ccc(C(F)(F)F)cc3)C(O)C(C)O2)Oc2ccc(cc2Cl)C1O` (stereo not shown) [Compound 37]: the MIC in [7] is 0.5 mg/L (≈ 0.286 µM); in assay [8], 1 mg/L (≈ 0.571 µM); in [1], ≤ 0.06 mg/L; in [2] it was ≤ 0.06 mg/L; in assay [5] it was ≤ 0.06 mg/L; in assay [13], 1 mg/L (≈ 0.571 µM). Besides, the MIC in assay [14] and in [15] was ≤ 0.06 mg/L throughout. In addition, the “mean geometric MIC, Vancomycin Resistant Strains” value in assay [9] came out at 2.4 mg/L.

`CCCCCOc1ccc(-c2ccc(CNC3(C)CC(OC4C(Oc5c6cc7cc5Oc5ccc(cc5Cl)C(OC5CC(C)(N)C(O)C(C)O5)C5NC(=O)C(NC(=O)C7NC(=O)C(CC(N)=O)NC(=O)C(NC(=O)C(CC(C)C)NC)C(O)c7ccc(c(Cl)c7)O6)c6ccc(O)c(c6)-c6c(O)cc(O)cc6C(C(=O)O)NC5=O)OC(CO)C(O)C4O)OC(C)C3O)cc2)cc1` (stereo not shown) [Compound 40]: the “mean geometric MIC, Vancomycin Resistant Strains” value in assay [9] came out at 0.50 mg/L. Moreover, the “mean geometric MIC, Vancomycin Sensitive Strains” value in assay [6] is 0.31 mg/L.

As for `CNC(CC(C)C)C(=O)NC1C(=O)NC(CC(N)=O)C(=O)NC2C(=O)NC3C(=O)NC(C(=O)NC(C(=O)O)c4cc(O)cc(O)c4-c4cc3ccc4O)C(OC3CC(C)(N)C(O)C(C)O3)c3ccc(c(Cl)c3)Oc3cc2cc(c3OC2OC(CO)C(O)C(O)C2OC2CC(C)(NCC(C)=Cc3ccc(C(C)(C)C)cc3)C(O)C(C)O2)Oc2ccc(cc2Cl)C1O` (stereo not shown) [Compound 42], in assay [9], the “mean geometric MIC, Vancomycin Resistant Strains” value was 1.7 mg/L. For the same compound, the “mean geometric MIC, Vancomycin Sensitive Strains” value in assay [6] stood at 0.089 mg/L.

As to `CNC(CC(C)C)C(=O)NC1C(=O)NC(CC(N)=O)C(=O)NC2C(=O)NC3C(=O)NC(C(=O)NC(C(=O)O)c4cc(O)cc(O)c4-c4cc3ccc4O)C(OC3CC(C)(N)C(O)C(C)O3)c3ccc(c(Cl)c3)Oc3cc2cc(c3OC2OC(CO)C(O)C(O)C2OC2CC(C)(NCc3c(O)ccc4ccccc34)C(O)C(C)O2)Oc2ccc(cc2Cl)C1O` (stereo not shown) [Compound 44], in [9], the “mean geometric MIC, Vancomycin Resistant Strains” value turned out to be 13 mg/L. In addition, the “mean geometric MIC, Vancomycin Sensitive Strains” value in [6] amounted to 0.50 mg/L.

`CNC(CC(C)C)C(=O)NC1C(=O)NC(CC(N)=O)C(=O)NC2C(=O)NC3C(=O)NC(C(=O)NC(C(=O)O)c4cc(O)cc(O)c4-c4cc3ccc4O)C(OC3CC(C)(N)C(O)C(C)O3)c3ccc(c(Cl)c3)Oc3cc2cc(c3OC2OC(CO)C(O)C(O)C2OC2CC(C)(NCc3cc(-c4ccccc4)nc4ccc(OC)cc34)C(O)C(C)O2)Oc2ccc(cc2Cl)C1O` (stereo not shown) [Compound 45]: in assay [9], the “mean geometric MIC, Vancomycin Resistant Strains” value was found to be 2.0 mg/L. Further, in assay [6], the “mean geometric MIC, Vancomycin Sensitive Strains” value is 0.50 mg/L.

Regarding `CNC(CC(C)C)C(=O)NC1C(=O)NC(CC(N)=O)C(=O)NC2C(=O)NC3C(=O)NC(C(=O)NC(C(=O)O)c4cc(O)cc(O)c4-c4cc3ccc4O)C(OC3CC(C)(N)C(O)C(C)O3)c3ccc(c(Cl)c3)Oc3cc2cc(c3OC2OC(CO)C(O)C(O)C2OC2CC(C)(NCC3CC=CCC3)C(O)C(C)O2)Oc2ccc(cc2Cl)C1O` (stereo not shown) [Compound 47], the “mean geometric MIC, Vancomycin Resistant Strains” value in assay [9] is 4.7 mg/L. In addition, the “mean geometric MIC, Vancomycin Sensitive Strains” value in [6] is 0.57 mg/L.

For `CNC(CC(C)C)C(=O)NC1C(=O)NC(CC(N)=O)C(=O)NC2C(=O)NC3C(=O)NC(C(=O)NC(C(=O)O)c4cc(O)cc(O)c4-c4cc3ccc4O)C(OC3CC(C)(N)C(O)C(C)O3)c3ccc(c(Cl)c3)Oc3cc2cc(c3OC2OC(CO)C(O)C(O)C2OC2CC(C)(NCc3ccc4c(c3)OCO4)C(O)C(C)O2)Oc2ccc(cc2Cl)C1O` (stereo not shown) [Compound 48], in assay [9], the “mean geometric MIC, Vancomycin Resistant Strains” value was 4.8 mg/L. Further, in [6], the “mean geometric MIC, Vancomycin Sensitive Strains” value stood at 0.50 mg/L.

For `CNC(CC(C)C)C(=O)NC1C(=O)NC(CC(N)=O)C(=O)NC2C(=O)NC3C(=O)NC(C(=O)NC(C(=O)O)c4cc(O)cc(O)c4-c4cc3ccc4O)C(OC3CC(C)(N)C(O)C(C)O3)c3ccc(c(Cl)c3)Oc3cc2cc(c3OC2OC(CO)C(O)C(O)C2OC2CC(C)(NCc3ccc(C(O)c4ccccc4)cc3)C(O)C(C)O2)Oc2ccc(cc2Cl)C1O` (stereo not shown) [Compound 109], the “mean geometric MIC, Vancomycin Resistant Strains” value in assay [9] is 72 mg/L. Besides, the “mean geometric MIC, Vancomycin Sensitive Strains” value in assay [6] came out at 0.22 mg/L.

On to `CCOC(c1ccccc1)c1ccc(CNC2(C)CC(OC3C(Oc4c5cc6cc4Oc4ccc(cc4Cl)C(OC4CC(C)(N)C(O)C(C)O4)C4NC(=O)C(NC(=O)C6NC(=O)C(CC(N)=O)NC(=O)C(NC(=O)C(CC(C)C)NC)C(O)c6ccc(c(Cl)c6)O5)c5ccc(O)c(c5)-c5c(O)cc(O)cc5C(C(=O)O)NC4=O)OC(CO)C(O)C3O)OC(C)C2O)cc1` (stereo not shown) [Compound 126], for which the MIC is 2 mg/L (≈ 1.1 µM) in assay [7]; 1 mg/L (≈ 0.55 µM) in assay [8]; ≤ 0.06 mg/L in [1]; 1 mg/L (≈ 0.55 µM) in assay [16]; 1 mg/L (≈ 0.55 µM) in assay [17]; 0.5 mg/L (≈ 0.275 µM) in assay [18]. Moreover, the MIC in assay [2] is ≤ 0.06 mg/L; in assay [11], 0.5 mg/L (≈ 0.275 µM); in assay [10], ≤ 0.06 mg/L; in assay [3], 1 mg/L (≈ 0.55 µM); in assay [4] it was 2 mg/L (≈ 1.1 µM); in assay [12], 1 mg/L (≈ 0.55 µM). Also, the MIC in assay [5] is ≤ 0.06 mg/L; in assay [13], 2 mg/L (≈ 1.1 µM); in assay [14] it was 0.5 mg/L (≈ 0.275 µM); in assay [15] it was 1 mg/L (≈ 0.55 µM). For the same compound, the “mean geometric MIC, Vancomycin Resistant Strains” value in assay [9] was 2.4 mg/L. Also, the “mean geometric MIC, Vancomycin Sensitive Strains” value in assay [6] amounted to 0.11 mg/L.
